The text below walks through data of US20050019355A1, “Skin antiseptic and disinfectant” (priority 2003, published 2005).

The subject of the experiment is E. coli (ATCC 25922). Kind of experiment: Lower effective concentration of ethyl lactate, modification of AOAC Method 956.17. The experiment is classed as cell-based. To be noted: 15% solution of ethyl lactate, 10 minutes exposure of E. coli. Here is the method: Using a modification of AOAC Method 956.17, the lower effective concentration for ethyl lactate was tested against E. coli (ATCC 25922) at three reaction times at varying concentrations of ethyl lactate. […] [table]

Regarding `CCOC(=O)C(C)O` (stereo not shown) [ethyl lactate], the “Bacterial growth after exposure” value is recorded as “eliminated bacterial growth”.
